US9266869B2, “Substituted dialkyl(oxido)-lambda4-sulfanylidene nicotinamide derivatives as kinase inhibitors” (Allergan, Inc., priority 2013, dated 2016)

How the values were obtained:
VEGFR2 (KDR) = VEGFR2 (KDR) (Homo sapiens (Human), UniProt P35968); test: VEGFR2 Kinase Assay; type: biochemical; details: purified cytoplasmic domain KDR protein, 2.7 μM ATP; read-out: VEGFR2 Enzyme Assay (IC50 nM)
Protocol: VEGFR2 Kinase Assay Biochemical KDR kinase assays were performed in 96 well microtiter plates that were coated overnight with 75 μg/well of poly-Glu-[…]:1) in 10 mM Phosphate Buffered Saline (PBS), pH 7.4. […] Reactions were carried out in 100 μL reaction volumes containing 2.7 μM ATP in kinase buffer (50 mM Hepes buffer pH 7.4, 20 mM MgCl2, 0.1 mM MnCl2 and 0.2 mM Na3VO4). […] Reactions were initiated by the addition 20 ul per well of kinase buffer containing 200-300 ng purified cytoplasmic domain KDR protein (BPS Bioscience, San Diego, Calif.). Following a 15 minute incubation at 30° C., the reactions were washed 2 mls per well PBS-T. 100 μl of a monoclonal anti-phosphotyrosine antibody-peroxidase conjugate diluted 1:10,000 in PBS-T was added to the wells for 30 minutes. Following a 2 mls per well wash with PBS-Tween-20, 100 μl of 0-Phenylenediamine Dihydrochloride in phosphate-citrate buffer, containing urea hydrogen peroxide, was added to the wells for 7-10 minutes as a colorimetric substrate for the peroxidase. […] IC50 values for compound inhibition were calculated directly from graphs of optical density (arbitrary units) versus compound concentration following subtraction of blank values.

VEGFR2 = VEGFR2 (Homo sapiens (Human), UniProt P35968); test: VEGFR2 Cellular Assay (VEGF induced intracellular calcium, FLIPR, HUVEC); type: cell-based; details: VEGF165 stimulation (10 ng/mL)
Chain of VEGFR2 (P35968 20-1356): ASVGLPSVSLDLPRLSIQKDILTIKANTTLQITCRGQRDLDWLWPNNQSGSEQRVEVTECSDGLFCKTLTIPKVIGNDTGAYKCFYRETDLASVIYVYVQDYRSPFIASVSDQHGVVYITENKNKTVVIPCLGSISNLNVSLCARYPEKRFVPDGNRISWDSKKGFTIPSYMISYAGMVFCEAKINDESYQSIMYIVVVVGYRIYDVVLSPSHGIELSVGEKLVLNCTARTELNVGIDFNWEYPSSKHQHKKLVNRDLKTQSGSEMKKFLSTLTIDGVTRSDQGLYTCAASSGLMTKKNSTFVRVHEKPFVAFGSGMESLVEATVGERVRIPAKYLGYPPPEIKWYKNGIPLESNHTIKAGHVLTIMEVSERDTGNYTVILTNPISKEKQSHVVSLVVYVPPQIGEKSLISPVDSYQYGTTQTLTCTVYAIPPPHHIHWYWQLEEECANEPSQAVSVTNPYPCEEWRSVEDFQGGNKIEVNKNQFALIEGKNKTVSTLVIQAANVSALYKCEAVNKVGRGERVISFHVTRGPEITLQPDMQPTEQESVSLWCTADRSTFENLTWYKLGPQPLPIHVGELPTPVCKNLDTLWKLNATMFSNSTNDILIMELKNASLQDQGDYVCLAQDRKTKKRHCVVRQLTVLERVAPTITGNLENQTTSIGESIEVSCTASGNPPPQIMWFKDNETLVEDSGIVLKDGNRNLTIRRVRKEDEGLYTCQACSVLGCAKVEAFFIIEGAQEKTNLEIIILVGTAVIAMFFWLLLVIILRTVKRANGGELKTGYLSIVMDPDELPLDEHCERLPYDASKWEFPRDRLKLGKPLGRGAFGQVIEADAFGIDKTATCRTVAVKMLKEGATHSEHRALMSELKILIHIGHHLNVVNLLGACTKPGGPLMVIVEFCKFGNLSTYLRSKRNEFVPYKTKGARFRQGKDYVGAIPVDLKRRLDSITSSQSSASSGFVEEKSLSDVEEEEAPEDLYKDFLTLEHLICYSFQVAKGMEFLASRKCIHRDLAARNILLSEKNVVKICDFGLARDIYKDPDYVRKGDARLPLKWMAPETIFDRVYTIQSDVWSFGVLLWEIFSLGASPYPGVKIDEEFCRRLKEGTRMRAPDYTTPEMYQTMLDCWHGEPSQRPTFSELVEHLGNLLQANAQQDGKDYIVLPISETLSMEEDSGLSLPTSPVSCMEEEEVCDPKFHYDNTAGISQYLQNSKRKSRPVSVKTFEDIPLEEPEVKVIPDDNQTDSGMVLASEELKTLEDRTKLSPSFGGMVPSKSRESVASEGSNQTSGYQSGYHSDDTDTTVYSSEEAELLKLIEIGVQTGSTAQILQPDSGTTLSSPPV
Protocol: (§1) VEGFR2 Cellular Assay Automated FLIPR (Fluorometric Imaging Plate Reader) technology was used to screen for inhibitors of VEGF induced increases in intracellular calcium levels in fluorescent dye loaded endothelial cells. HUVEC (human umbilical vein endothelial cells) (Clonetics) were seeded in 384-well fibronectin coated black-walled plates overnight @ 37° C./5% CO2. Cells were loaded with calcium indicator Fluo-4 for 45 minutes at 37° C. Cells were washed 2 times (Elx405, Biotek Instruments) to remove extracellular dye. For screening, cells were pre-incubated with test agents for 30 minutes, at a single concentration (10 uM) or at concentrations ranging from 0.0001 to 10.0 uM followed by VEGF165 stimulation (10 ng/mL). Changes in fluorescence at 516 nm were measured simultaneously in all 384 wells using a cooled CCD camera. Data were generated by determining max-min fluorescence levels for unstimulated, stimulated, and drug treated samples. IC50 values for test compounds were calculated from % inhibition of VEGF stimulated responses in the absence of inhibitor.

PDGFRβ [1] = molecular target: T1, PDGFRβ (Homo sapiens (Human), UniProt P09619); test: PDGFRβ Kinase Assay; type: biochemical; details: purified cytoplasmic domain PDGFR-b protein, 36 μM ATP; read-out: PDGFRβ Enzyme Assay (IC50 nM)
Protocol: Biochemical PDGFRβ kinase assays were performed in 96 well microtiter plates that were coated overnight with 75 μg of poly-Glu-Tyr (4:1) in 10 mM Phosphate Buffered Saline (PBS), pH 7.4.
PBS-T prior to starting the reaction. Reactions were carried out in 100 μL reaction volumes containing 36 μM ATP in kinase buffer (50 mM Hepes buffer pH 7.4, 20 mM MgCl2, 0.1 mM MnCl2 and 0.2 mM Na3VO4). […] Reactions were initiated by the addition 20 ul per well of kinase buffer containing 200-300 ng purified cytoplasmic domain PDGFR-b protein (Millipore). Following a 60 minute incubation at 30° C., the reactions were washed 2 mls per well PBS-T. 100 μl of a monoclonal anti-phosphotyrosine antibody-peroxidase conjugate diluted 1:10,000 in PBS-T was added to the wells for 30 minutes. Following a 2 mls per well wash with PBS-Tween-20, 100 μl of O-Phenylenediamine Dihydrochloride in phosphate-citrate buffer, containing urea hydrogen peroxide, was added to the wells for 7-10 minutes as a colorimetric substrate for the peroxidase. […] IC50 values for compound inhibition were calculated directly from graphs of optical density (arbitrary units) versus compound concentration following subtraction of blank values.
Target sequence in this assay (P09619 554-1106): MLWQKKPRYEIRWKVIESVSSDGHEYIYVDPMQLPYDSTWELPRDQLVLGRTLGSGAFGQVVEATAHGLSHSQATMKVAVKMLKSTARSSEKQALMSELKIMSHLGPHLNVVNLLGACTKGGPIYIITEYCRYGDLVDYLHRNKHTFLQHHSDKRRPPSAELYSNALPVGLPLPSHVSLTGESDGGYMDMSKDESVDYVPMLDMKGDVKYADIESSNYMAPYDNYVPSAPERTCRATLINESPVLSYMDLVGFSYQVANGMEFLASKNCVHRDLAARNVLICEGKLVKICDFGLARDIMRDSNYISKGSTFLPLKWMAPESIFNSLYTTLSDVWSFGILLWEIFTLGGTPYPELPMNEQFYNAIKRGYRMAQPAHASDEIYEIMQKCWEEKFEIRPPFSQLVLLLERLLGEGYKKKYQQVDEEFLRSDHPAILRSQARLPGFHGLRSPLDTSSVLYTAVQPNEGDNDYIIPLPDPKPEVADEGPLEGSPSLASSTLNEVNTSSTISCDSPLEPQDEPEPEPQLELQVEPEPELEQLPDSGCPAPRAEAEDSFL

PDGFRβ [2] = molecular target: T1, PDGFRβ; test: PDGFRβ Cellular Assay (PDGF-induced intracellular calcium, FLIPR, NHDF-Ad); type: cell-based; details: PDGF-BB stimulation (30 ng/mL)
Protocol: as §1, with “Automated” for “VEGFR2 Cellular Assay Automated”, “of PDGF-induced” for “of VEGF induced”, “[…]. NHDF-Ad (Normal Human Dermal Fibroblasts, Adult; Lonza)” for “cells. HUVEC (human umbilical vein endothelial cells) (Clonetics)”, “by PDGF-BB” for “by VEGF165”, “stimulation (30” for “stimulation (10”, “of PDGF-BB” for “of VEGF”
Target sequence in this assay (P09619 33-1106): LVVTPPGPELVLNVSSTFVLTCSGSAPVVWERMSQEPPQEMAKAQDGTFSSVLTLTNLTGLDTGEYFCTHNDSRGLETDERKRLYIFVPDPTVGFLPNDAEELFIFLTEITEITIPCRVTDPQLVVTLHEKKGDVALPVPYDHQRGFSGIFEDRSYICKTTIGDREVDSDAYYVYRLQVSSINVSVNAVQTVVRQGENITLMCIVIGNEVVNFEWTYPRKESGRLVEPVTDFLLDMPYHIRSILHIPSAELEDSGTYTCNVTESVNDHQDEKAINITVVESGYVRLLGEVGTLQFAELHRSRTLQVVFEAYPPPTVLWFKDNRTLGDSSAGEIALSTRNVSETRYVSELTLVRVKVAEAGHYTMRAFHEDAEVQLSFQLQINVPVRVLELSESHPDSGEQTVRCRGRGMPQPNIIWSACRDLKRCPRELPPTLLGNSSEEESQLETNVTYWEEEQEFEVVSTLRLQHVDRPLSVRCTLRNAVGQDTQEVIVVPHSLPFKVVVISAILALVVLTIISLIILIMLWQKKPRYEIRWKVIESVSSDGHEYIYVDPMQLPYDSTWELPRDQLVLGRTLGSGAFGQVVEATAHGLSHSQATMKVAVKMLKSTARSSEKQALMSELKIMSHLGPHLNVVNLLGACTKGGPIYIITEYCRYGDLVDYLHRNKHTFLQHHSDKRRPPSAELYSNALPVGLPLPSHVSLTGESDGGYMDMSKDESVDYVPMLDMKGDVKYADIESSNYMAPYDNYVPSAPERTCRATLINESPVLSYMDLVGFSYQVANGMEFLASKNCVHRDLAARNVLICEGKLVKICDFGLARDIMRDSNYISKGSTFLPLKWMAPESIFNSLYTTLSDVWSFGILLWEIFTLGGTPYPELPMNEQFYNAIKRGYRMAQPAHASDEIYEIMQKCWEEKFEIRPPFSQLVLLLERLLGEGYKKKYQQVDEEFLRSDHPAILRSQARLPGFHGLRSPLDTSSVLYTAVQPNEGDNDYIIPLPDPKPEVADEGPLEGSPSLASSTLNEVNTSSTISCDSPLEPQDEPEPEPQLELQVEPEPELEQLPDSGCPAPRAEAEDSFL

VEGF permeability model = test: VEGF permeability model, intravitreal injection; type: in vivo; details: dosed by intravitreal injection

Chain of VEGFR2 (KDR) (P35968 786-1356): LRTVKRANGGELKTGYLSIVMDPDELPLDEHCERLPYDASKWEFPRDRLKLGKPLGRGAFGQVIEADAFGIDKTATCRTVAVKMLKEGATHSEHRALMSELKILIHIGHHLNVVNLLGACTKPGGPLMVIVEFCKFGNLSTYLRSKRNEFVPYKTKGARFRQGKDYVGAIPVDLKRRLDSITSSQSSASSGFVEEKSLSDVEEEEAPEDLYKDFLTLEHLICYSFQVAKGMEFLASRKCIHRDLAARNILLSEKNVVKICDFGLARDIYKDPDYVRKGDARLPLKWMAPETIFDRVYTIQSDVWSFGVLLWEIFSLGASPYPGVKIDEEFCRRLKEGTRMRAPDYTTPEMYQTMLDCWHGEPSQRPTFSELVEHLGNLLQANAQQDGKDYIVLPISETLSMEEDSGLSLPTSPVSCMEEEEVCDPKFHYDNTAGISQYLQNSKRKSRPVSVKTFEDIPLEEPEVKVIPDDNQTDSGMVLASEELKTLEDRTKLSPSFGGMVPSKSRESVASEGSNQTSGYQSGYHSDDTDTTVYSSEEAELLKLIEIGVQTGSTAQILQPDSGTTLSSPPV

**Q.** For `COC(=O)CCCCS(C)(=O)=NC(=O)c1cnc(N)c(C#Cc2cccc(C(=O)Nc3cccc(C)c3)c2)c1` (centres unmarked) [Example 34, Methyl 5-[N-({6-amino-5-[(3-{[(3-methylphenyl)amino]carbonyl}phenyl)ethynyl]pyridin-3-yl}carbonyl)-S-methylsulfonimidoyl]pentanoate], which IC50 (VEGFR2 (KDR)) is on record?
**A.** The IC50 was 7 nM.

**Q.** And the IC50 (VEGFR2)?
**A.** Its IC50 is 2 nM.

**Q.** What about the IC50 (PDGFRβ [1]) of the same compound?
**A.** The IC50 was 15 nM.

**Q.** What about the IC50 (PDGFRβ [2]) of the same compound?
**A.** Its IC50 is 13 nM.

**Q.** What about the “in vivo efficacy in the VEGF permeability model” value (VEGF permeability model) of the same compound?
**A.** The value was “good in vivo efficacy”.
